Results: patent publication US20230278972A1, “SUBSTITUTED HALOALKYL SULFONANILIDE HERBICIDES” (FMC Corporation, priority 2020, published 2023)

Tests used:
Format in all cases: in vivo
[1] = test system: Pigweed, Palmer (palmer amaranth, palmer pigweed, Amaranthus palmeri); assay: Test A1 postemergence, Pigweed, Palmer; conditions: for Pigweed, Palmer plant response rating: 31 g ai/ha, postemergence, 0 to 100 scale (0 no effect, 100 complete control); for Plant response rating, Pigweed, Palmer: Postemergence, 125 g ai/ha, 0 to 100 scale
Outline: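 Pre: seeds in loam/sand blend, directed soil spray. Post: potted plants, same soil, 2–10 cm, 1–2 leaf stage. Chemicals in non-phytotoxic solvent + surfactant for both.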

[2] = test system: Foxtail, Giant (giant foxtail, Setaria faberi); assay: Test A1 postemergence, Foxtail, Giant; conditions: for Foxtail, Giant plant response rating: 31 g ai/ha, postemergence, 0 to 100 scale (0 no effect, 100 complete control); for Plant response rating, Foxtail, Giant: Postemergence, 125 g ai/ha, 0 to 100 scale
Outline: (§1)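 Plants were grown in a loam soil/sand blend, with test chemicals formulated in a non-phytotoxic solvent mixture containing surfactant. Preemergence treatment (corn) was a directed soil spray at planting. Postemergence treatment was applied to plants 2 to 10 cm tall at the one- to two-leaf stage.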

[3] = test system: ducksalad (Heteranthera limosa); assay: Test B1 flooded paddy test, ducksalad; conditions: 250 g ai/ha, Flood, applied to paddy water, 2-leaf stage, visually evaluated after 10 to 14 days
From the text: (§2) A dash (-) response means no test result.

[4] = test system: kochia (Bassia scoparia); assay: Test A1 preemergence, kochia
Outline: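 Both timings started from seed in a loam-sand blend. Preemergence pots got a directed soil application immediately; postemergence pots were sprayed when seedlings had one or two leaves and stood 2–10 cm. Each compound was prepared in a non-phytotoxic solvent plus surfactant.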

[5] = test system: galium (catchweed bedstraw, Galium aparine); assay: Test A1 postemergence, galium; conditions: for Galium plant response rating: 31 g ai/ha, postemergence, 0 to 100 scale (0 no effect, 100 complete control); for Plant response rating, Galium: Postemergence, 125 g ai/ha, 0 to 100 scale
Outline: as §1

[6] = test system: rice (Oryza sativa); assay: Test B1 flooded paddy test, rice; conditions: 250 g ai/ha, Flood, applied to paddy water, 2-leaf stage, visually evaluated after 10 to 14 days
From the text: as §2

[7] = 31 g ai/ha, 0 to 100 scale (0 no effect, 100 complete control)
[8] = 125 g ai/ha, 0 to 100 scale, 0 no effect, 100 complete control

Row | SMILES | Pigweed, Palmer plant response rating [1] | Plant response rating, Pigweed, Palmer [1] | Foxtail, Giant plant response rating [2] | Plant response rating, Foxtail, Giant [2] | Plant response rating, Ducksalad (0 to 100 scale, 0 is no effect, 100 is complete control) [3] | Plant response rating, Kochia [4, 7] | Plant response rating, Kochia [4, 8] | Galium plant response rating [5] | Plant response rating, Galium [5] | Plant response rating, Rice (0 to 100 scale, 0 is no effect, 100 is complete control) [6]
1 | Cc1c(C(=O)N2C[C@@H](C)O[C@H](C)C2)cc(N(COC(=O)C(C)(C)C)S(=O)(=O)C(F)(F)F)c(C)c1C (relative stereo) [Compound 373] | 0 | 10 | 0 | 60 | 85 | 0 | 0 | 50 | 70 | 20
2 | CCOC(=O)N(c1cc(C(=O)N2C[C@@H](C)O[C@H](C)C2)c(C)c(C)c1C)S(=O)(=O)C(F)(F)F (relative stereo) [Compound 374] | 10 | 30 | 0 | 80 | 85 | 0 | 0 | 60 | 80 | 0
3 | Cc1c(NS(=O)(=O)C(F)(F)F)cc(C(=O)N2CCC(C)CC2)c(C)c1C [Compound 366] | 10 | 20 | 30 | 80 | 65 | 0 | 30 | 50 | 100 | 10
4 | COC1CCN(C(=O)c2cc(NS(=O)(=O)C(F)(F)F)c(C)c(C)c2C)CC1 [Compound 367] | 40 | 40 | 10 | 90 | 80 | 0 | 20 | 50 | 100 | 15
5 | C#CCN(C)C(=O)c1cc(NS(=O)(=O)C(F)(F)F)c(C)c(C)c1C [Compound 368] | 20 | 40 | 80 | 90 | 60 | 20 | 90 | 70 | 100 | 0
6 | COC1CCN(C(=O)c2cc(N(COC(=O)C(C)(C)C)S(=O)(=O)C(F)(F)F)c(C)c(C)c2C)CC1 [Compound 370] | 0 | 20 | 10 | 80 | 70 | 0 | 20 | 90 | 100 | 25
7 | C#CCN(C)C(=O)c1cc(N(COC(=O)C(C)(C)C)S(=O)(=O)C(F)(F)F)c(C)c(C)c1C [Compound 371] | 0 | 30 | 90 | 90 | 55 | 0 | 70 | 70 | 100 | 10
8 | Cc1cc(C)c(C2=NOC3OCCCC23)cc1NS(=O)(=O)C(F)(F)F (stereo not drawn) [Compound 372] | 30 | 40 | 0 | 40 | 65 | 0 | 70 | 60 | 80 | 10
9 | CCC1CC(c2cc(NS(=O)(=O)C(F)(F)F)c(C)cc2C)=NO1 (stereo not drawn) [Compound 375] | 0 | 20 | 0 | 10 | 60 | 0 | 70 | 10 | 20 | 15
10 | CCC1CC(c2cc(N(COC(=O)C(C)(C)C)S(=O)(=O)C(F)(F)F)c(C)cc2C)=NO1 (stereo not drawn) [Compound 376] | 0 | 20 | 0 | 20 | 70 | 0 | 80 | 10 | 30 | 20
11 | Cc1ccc(C2=NOC3CCCC23)cc1NS(=O)(=O)C(F)(F)F (stereo not drawn) [Compound 377] | 0 | 0 | 0 | 0 | 15 | 0 | 20 | 0 | 0 | 0
12 | CCc1cc(C)c(N(COC(=O)C(C)(C)C)S(=O)(=O)C(F)(F)F)cc1C1=NOC2CCCC12 (stereo not drawn) [Compound 378] | 0 | 10 | 0 | 10 | 20 | 0 | 20 | 20 | 40 | 10
